The source of these data is a melting point compilation (Tetko et al.; mined from patent text by program, amines drawn as free bases though some values may be those of a salt).

`Cc1ncc(-c2ccc(F)cc2)n1-c1ccc(Cl)cc1`: the melting point was in the range of 132 to 134 °C.

`CCOC(=O)c1cn(Cc2ccccc2OC)c2c(F)c(F)c(F)cc2c1=O`: the melting point fell in the range of 203 to 204 °C. The result for `Cn1cc(-c2c(-c3ccccc3)nn3ccncc23)ccc1=O` reads 168 to 169 °C.

The compound `FC(F)(F)c1cccc(-c2c[nH]c(C3CCN(c4ncnc5[nH]ncc45)CC3)n2)c1` gave a melting point of 281 °C. To `CCOC(=O)COn1c2c([nH]c(=O)c1=O)CCC1=C2C=C(n2c(C)ccc2C)CC1` belongs 157 to 158 °C. The result for `CCCCCCCCCCCCCCCc1cccc(OCC)c1C1NC(=O)NC(C)=C1C(=O)OC` (stereo not drawn) reads 127 to 129 °C. The result for `O=c1[nH]c(COCC(F)(F)F)nc2nccnc12` reads 165 to 167 °C; that for `O=C(C=CC(=O)OC(Cl)C(Cl)(Cl)Cl)OC(Cl)C(Cl)(Cl)Cl` (stereo not drawn), 144 °C. `Nc1cc(Br)nn1-c1c(Cl)cc(C(F)(F)F)cc1Cl`: the melting point lay in the range of 132 to 134 °C.

Take `Cc1nnnn1CC(C)n1nnc2cc3c(=O)n(C4CC4)nnc3cc2c1=O` (stereo not drawn): the melting point lay within 208 to 211 °C.

Regarding `CN1Cc2c(C(=O)NN)ncn2-c2ccsc2C1=O`, the melting point was over 260 °C. As to `CCCCCCCCCC(=O)Nc1ccc(S(=O)(=O)Nc2nnc(CC)s2)cc1`, the melting point lay within 121 to 122 °C.

`O=C(Nc1ccc(C(F)(F)F)cc1)NC(Cc1ccc(C(F)(F)F)cc1)C(O)c1ccc(F)cc1` (stereo not drawn) registered a melting point of 160 to 161 °C. Compound `COCCNC(=O)c1ccc(C(=O)N2CCN(c3ncccc3NCC(C)C)CC2)nc1` registered a melting point of 123 to 125 °C. In turn, `COc1ccc2c(c1)CCC1C2CCC2(C)C(NCCc3cccn3C)CCC12` (stereo not drawn) yielded a melting point of 141 to 143 °C. The result for `CC(C)Cn1c(=O)[nH]c2ncc(-c3ccc(O)cc3)nc21` reads 290 to 291 °C.

Consider `CCC(C)N1C(=O)c2ccc(C)nc2C1=O` (stereo not drawn), for which the melting point lay within 105 to 106 °C. For `COc1cc(OCCN2C3C=C(c4ccc5ccccc5c4)CC2CC3)c2ncccc2c1` (stereo not drawn), the melting point was 100 to 103 °C.

In the case of `Cc1nc(-c2ccccc2)n(C)c1C=NOCCO`, the melting point is 95 to 97 °C. The result for `Cn1c(=S)n(C)c(=O)n(-c2cc(O)c(Cl)cc2F)c1=O` reads 242 to 246 °C; that for `COc1cccc(CN2CCN(CC(=O)N3CC=C(c4cccc(C(F)(F)F)c4)n4cnc(C#N)c43)CC2)c1`, 131 to 133 °C; that for `CC(=O)OCC1c2ccccc2-c2c1c1ccccc1c1ccccc21` (stereo not drawn), 135 to 136 °C.

The compound `CC(=O)Oc1ccccc1C(=O)Oc1cccc(CO)c1` registered a melting point of 77 to 79 °C.

As for `CC1(C)C[C@H]2c3cccc4c3N(CCNC4)[C@H]2C1`, the melting point was 155 to 157 °C.

In turn, `COc1ccc(CC(=O)O)c(C(=O)O)c1` returned a melting point of 175 to 177 °C. The result for `CCC(Oc1cccc(C(F)(F)F)c1)C(=O)OC1CC(O)C=C2C=CC(C)C(CCC3CC(O)CC(=O)O3)C21` (mixture of isomers) reads 135 to 137 °C; that for `FC(F)(F)c1nc(-c2ccccc2)c(-c2ccccc2)s1`, 94 to 97 °C; that for `COC(=O)c1ccc(OC)nc1OC`, 52 to 54 °C.

Compound `OCC(CO)Oc1ccc(I)cc1` registered a melting point of 90 °C.

In turn, `Nc1c(C(=O)O)c(=O)[nH]c2cc(Cl)ccc12` yielded a melting point of over 330 °C. The result for `CNC(=O)/C(=N/OC)c1ccccc1COc1cccc(SC)n1` reads 130 to 132 °C; that for `CC1COCc2nc3c(N)nc4ccc(OCCN5CCOCC5)cc4c3n21` (stereo not drawn), 186 to 188 °C. `O=C1c2cc(Cl)ccc2OCC1n1ccnc1` (stereo not drawn) registered a melting point of 123 to 125 °C. The result for `CCOC(=O)c1cc2sc(C)c(N(C)C(=O)OCc3ccccc3)c2[nH]1` reads 122 °C; that for `CSc1cc(C(C)(C)C)c(O)c(C(=O)O)c1C`, 138 to 139 °C; that for `O=C1C(Cl)=C(c2ccccc2)C(=O)N1c1cccc(Cl)c1`, 67 to 68 °C. To `O=C(CN1CCN(C(=O)CCCCCS)CC1)Nc1nc2ccccc2s1` belongs 89 to 92 °C; to `COc1c(C(O)c2ncc([N+](=O)[O-])n2C)cc(O)cc1C(C)(C)C` (stereo not drawn), 125 to 128 °C; to `COc1cc(CC(=O)N2CCN(c3nsc4ccccc34)CC2)c([N+](=O)[O-])cc1OC`, 170 °C. The result for `N#Cc1c(C#N)c(Oc2ccc3ccccc3c2)c(Oc2ccc3ccccc3c2)c(Oc2ccc3ccccc3c2)c1Oc1ccc2ccccc2c1` reads 188 to 190 °C; that for `[N-]=[N+]=N[C@@H]1c2cc(F)ccc2Oc2ccccc2[C@H]1C[C@@H](O)COC(c1ccccc1)(c1ccccc1)c1ccccc1`, 58 to 59 °C. The compound `O=C1NC(=O)c2ccccc2/C1=C/Nc1ccc2cn[nH]c2c1` displayed a melting point of over 300 °C. The result for `[O-][N+]1=C(c2ccccc2)c2cc(C(F)(F)F)ccc2-n2c(CBr)nnc2C1` reads 185 to 210 °C; that for `CNc1cc(Oc2ccc3c(C(=O)Nc4ccc(N5CCOCC5)c(C(F)(F)F)c4)cccc3c2)ncn1`, 156 to 157 °C; that for `O=c1cc(C(F)(F)F)ccn1-c1c(Cl)cc(CF)cc1Cl`, 121 to 122 °C.

The compound `CC(C)(C)n1nnc(NC(=O)C(c2ccccc2)c2ccccc2)n1` displayed a melting point of 191 to 192 °C.

Turning to `O=C(CCCc1ccccc1)OCCCCCCCCCCCCNCC(O)c1ccccc1` (stereo not drawn), the melting point was 73 to 74 °C.

For `CCc1nc2c(cnn2CC)c(NC2CCOCC2)c1CNC(=O)c1cc(C)cc(C(=O)NCc2ccc(F)c(-c3cccc(C=O)c3)c2)c1`, the melting point lay in the range of 107 to 110 °C. The result for `COC(=O)Cc1c(C)nc(C)nc1Cl` reads 53 to 54 °C.

In the case of `CC1=NN=C(C=Cc2ccccc2F)c2cc3c(cc2C1)OCO3`, the melting point is 138 to 141 °C. To `CN(N)c1nc2ccccc2s1` belongs 137 to 139 °C. To `CC(Oc1ccc(Oc2cnc3cc(Cl)ccc3n2)cc1)C(=O)Nc1ccc(OC(F)(F)C(Cl)(Cl)Cl)cc1` (stereo not drawn) belongs 139 to 141 °C. The result for `CN(C)c1nc2ccccc2n2cnnc12` reads 184 to 186 °C. In the case of `CC(=O)OC1CSC(Oc2cccnc2F)C(OC(C)=O)C1OC(C)=O` (stereo not drawn), the melting point turned out to be 160 °C. The result for `CC(C)c1cc(C=CC(=O)Nc2ccc(C(=O)O)cc2)oc1C(C)C` reads 131 to 133 °C; that for `C[C@H](CO)Nc1ccc([N+](=O)[O-])cc1F`, 128 to 130 °C.

Compound `COC(=O)c1oc2ccc(Cl)cc2c1-c1ccccc1C` had a melting point of 212 to 214 °C. To `O=S1NC=Cc2ccccc21` (stereo not drawn) belongs 198 to 200 °C; to `CCCCc1c(Cl)nc(O)nc1Cl`, 73 to 75 °C; to `CCN(CC)CCNc1ccc(CNS(C)(=O)=O)c2sc3ccc(Br)cc3c(=O)c12`, 134 to 139 °C.

As for `Nc1ncccc1NCc1ccc(Oc2ccc(F)cc2)cc1`, the melting point was in the range of 117 to 118 °C. In turn, `CC(C)Cn1nc(-c2ccc(C(F)(F)F)cc2)cc(CO)c1=O` registered a melting point of 146 °C. To `CCCCC(Cc1cccnc1)(C(=O)NO)S(=O)(=O)c1ccc(OC)cc1` (stereo not drawn) belongs 65 °C; to `N=C(Nc1cccc(NC(=O)/C=C/c2ccc(Cl)cc2)c1)c1ccccc1`, 109 to 110 °C. The result for `COc1cc(COc2ncccc2CC(=O)O)ccc1OCc1nc(-c2ccccc2)oc1C` reads 145 to 146 °C; that for `COc1cc(CCC=CC(=O)CCC(=O)O)cc(OC)c1OC`, 187 to 189 °C; that for `O=C(CCCCCCC(=O)Oc1cc(O)cc(O)c1)Oc1cc(O)cc(O)c1`, 185 to 188 °C. The result for `CCc1cc(=O)n(-c2cc(C(=O)OC(C)C)c(Cl)cc2F)c(=O)[nH]1` reads 121 to 124 °C; that for `O=C1CSCC2=C1C(c1ccc(F)c(Br)c1)n1nccc1N2` (stereo not drawn), 160 to 163 °C; that for `COc1cccc(-c2nc(N)nc(Nc3ccc(O)cc3)n2)c1`, 93.5 to 94 °C. In turn, `N#CCC(=O)c1cc(F)c(Cl)cc1Cl` gave a melting point of 98 to 99 °C. As to `O=C(NC(Cc1ccccc1)C(=O)O)c1ccc2cc(Oc3ccccc3)ccc2c1` (stereo not drawn), the melting point is 179 to 180 °C. To `OCCCCCCCCCCCCCCCCCCCCCCC(F)(F)C(F)(F)C(F)(F)C(F)(F)F` belongs 69 to 71 °C; to `O=C(Nc1ccc2[nH]ccc2c1)C(=O)N1CCC(Cc2ccccc2)CC1`, 68 to 72 °C.

In the case of `CC(C)(C)C(=O)c1c[nH]c2ncc(-c3cccc(N4CC5(COC5)C4)c3)nc12`, the melting point lay in the range of 260 to 262 °C. To `CCCCCCCCCCOC(=O)OC(C)OC1=C(C(=O)Nc2ccccn2)N(C)S(=O)(=O)c2ccccc21` (stereo not drawn) belongs 84 to 86 °C; to `COC(C)COC(=O)Nc1ccc(C2=NNC(=O)CC2C)cc1` (stereo not drawn), 173 to 175 °C; to `O=C1NC(=O)C(c2ccc(-c3ccccc3)o2)O1` (stereo not drawn), 216 to 218 °C. Consider `O=c1ccn(-c2cccc3c2OC(F)(F)O3)nc1-c1ccnn1-c1ccccc1`, for which the melting point lay in the range of 105 to 107 °C. `Sc1nsnc1-c1c(Cl)cccc1Cl` had a melting point of 91 to 94 °C. To `COc1ccc(C(O)CN(Cc2ccccc2)Cc2ccccc2)cc1C(N)=O` (stereo not drawn) belongs 120 to 123 °C; to `Cc1cccc(NC(=O)NC2N=C(c3ccccc3F)c3ccccc3N(Cc3nc4ccccc4o3)C2=O)c1` (racemic), 209 to 210 °C; to `O=c1c2c(Cl)cccc2nc2sc(Br)cn12`, 174 to 178 °C.

In the case of `CC#CCOc1cc(Oc2ccc([N+](=O)[O-])cc2F)ncn1`, the melting point stood at 132 °C. The compound `Nc1ncccc1-c1nc2cc(-c3cccnc3)cnc2n1-c1ccc(CNS(=O)(=O)C2CC2)cc1` yielded a melting point of 197 to 199 °C.

With `O=C(NC(=S)Nc1ccc(F)cc1)c1ccccc1`, the melting point worked out at 82 °C.

`CC(=O)n1nc(CBr)c(Oc2cc(Cl)cc(Cl)c2)c1C`: the melting point fell in the range of 111 to 113 °C. The result for `Oc1ccc(-c2cnc3cnc(-c4ccccc4O)nc3c2)cc1` reads over 268 °C.

The term melting point denotes the temperature of the solid-liquid transition.
